In patent US6503947B1, “Method of treating cytotoxic damage” (Brigham and Women's Hospital, priority 1998, dated 2003):

Experiments:
complement C3 = complement C3 (Homo sapiens, UniProt P01024); assay: complement C3 inhibitory IC50 of SHA; assay type: biochemical
[1] = Pharmacokinetics of SHA in blood and brain after i.p. injection; assay type: in vivo, Sprague-Dawley rats; conditions: 400 mg/kg i.p., rat
Protocol: SHA (400 mg/kg) was injected intraperitoneally (i.p.) into Sprague-Dawley rats. At fixed time intervals after injection, blood samples were collected, and perfused brain was removed and homogenized. Acidified blood and brain samples were extracted in ethyl acetate. SHA was quantitated by reverse phase HPLC at 310 nm, and compared to known amounts of standards that had been added to blood or brain tissue as shown in FIG. 4.
The time of SHA injection after the onset of ischemia or reperfusion can be systematically varied to determine other ranges in which therapeutic intervention is available using this drug.

[2] = system: mice subjected to middle cerebral artery occlusion; assay: Middle cerebral artery (MCA) occlusion stroke model, infarct volume with SHA; assay type: in vivo, C57BL/6 mice; conditions: 400 mg/kg i.p. twice (at occlusion and 1.5 h later), sacrifice at 24 hours, mean±SEM, n=3
Protocol: FIG. 5 is a graph depicting the infarct volume of C57BL/6 mice subjected to middle cerebral artery occlusion and treated with saline (Control, n=3) or SHA (SHA, n=3).
SHA was tested for its ability to prevent cytotoxic damage by using the middle cerebral artery (MCA) occlusion stroke model (Longa et al., supra). Briefly, this system involves anesthetizing mice with isoflurane and then maintaining the body temperature of the mice at 36±1° C. A 6.0 monofilament nylon suture with silicone-coated tip was then advanced into the internal carotid artery about 9 mm via the external carotid artery. Immediately after the filament was secured, SHA (400 mg/kg i.p.) or vehicle (normal saline) was injected. At 1.5 hours after the first injection, a second i.p. injection was given to the animal. 2 hours later the animals were re-anesthetized and the filament was removed to allow reperfusion. Cerebral blood flow, blood pressure, blood gases, pH, and serum glucose were monitored in these studies. At 24 hours the animals were sacrificed, brains removed and 1 mm thick brain section are cut on a vibratome. The brain slices were stained with 2% triphenyltetrazolium choloride. The infarct volume was obtained as described in Swanson et al., supra with results being (mean+SEM, n=3 in each group) 62.6±34.2 mm^3 in the vehicle-treated group versus 6.1±6.0 mm^3 in the SHA-treated group.

[3] = system: mice subjected to middle cerebral artery occlusion; assay: Intravenous injection of tPA into tPA-deficient or wild-type mice with intraluminal filament MCA occlusion; assay type: in vivo, mice (C57BL/6 or SV129)
Protocol: Wild-type and tPA-deficient male mice (on C57Black/6 and SV129 backgrounds) weighing 23-27 grams were housed in a 12 hour light/dark cycle and permitted food and water intake ad libitum. Transient ischemia/reperfusion was performed using the intravascular filament model to occlude the middle cerebral artery unilaterally for 2 or 3 hours followed by reperfusion for the remainder of the 24 hour period as described in Longa et al., Stroke 20, 84-91 (1989) and Soriano. et al. Ann. Neurol. 39, 618-624 (1996). Briefly, under isoflurane anesthesia, a 6.0 nylon filament coated with silicone was threaded into the lumen of the middle cerebral artery of mice (C57Black/6 and SVI29 backgrounds) to produce transient ischemia. After 2 or 3 hours of occlusion, the filament was gently withdrawn to allow tissue reperfusion. Body temperature was maintained at 36.5±1.0° C. […] Animals were sacrificed 24 hours after the onset of the insult as described in Huang et al. Science 265, 1883-1885 (1994) and Soriano, supra. Infarct volumes were digitally quantified on 1.5 mm thick coronal sections after correction for edema by measuring TTC staining, as described in Soriano, supra, Bederson et al., Stroke 17,472-476 (1986); Swanson et al., J. Cereb. Blood Flow Metab. 10, 290-293 (1990), Lin et al., Stroke 24, 117-121 (1993); Zhang, et al., Neurology 44, 1747-1751 (1994); and Chopp et al. Stroke 25, 869-876 (1994)). Infarct volume decreased from 116±8 mm^3 in control wild-type mice to 69±7 mm^3 in tPA-deficient mice (mean±s.e.m., n=19 mice), as shown in FIG. 1. Under these conditions, there is no thrombosis at the occluded site, so the absence of tPA would not contribute to damage via an enhanced clotting cascade.
To determine the effect of intravenous injection of tPA into tPA-deficient or wild-type mice (C57BL/6 or SV129), intravenous tPA was administered intravenously, 10% initially by bolus, followed by constant infusion over twenty to thirty minutes at 0.9-1.0 mg/kg (similar to rt-PA Stroke Study Group, N. EngL J. Med. 333, 1581-1587 (1995) and Hacke. et al. JAMA 274, 1017-1025 (1995). The formula for the carrier used to dilute tPA was obtained from the manufacturer (Genentech, San Francisco, Calif.) and was used as one of the control injections. The diluent consisted of 0.02 M arginine phosphate at pH 7.3 with 0.001% Tween. […] In wildtype, but not tPA deficient mice, ischemia induced an increase in tPA activity, as assessed by histological zymography. Briefly, wild-type or tPA deficient mice were subjected to 2 hours of focal ischemia. After 10 minutes of reperfusion, the animals were sacrificed and their brains frozen as described previously (Tsirka et al., Nature 377, 340-344 (1995)). Then, 12 μm consecutive coronal brain cryostat sections were subjected to histological zymography to visualize tPA activity with or without amiloride (1 mM, a specific urokinase [uPA] inhibitor) (Sappino et al J. Clin. Invest. 92, 679-685 (1993) and Rosenberg et al., Cereb. Blood Flow Metab. 16, 360-366 (1996)). The sections were overlaid with a milk-agarose substrate matrix containing 50 ug/ml of purified human plasminogen and 1 mg/ml amiloride. […]
Regional cerebral blood flow was also monitored by the laser Doppler flowmetry technique as described in Dimagl et al J. Cereb. […] Briefly, the initial reading of regional Cerebral Blood Flow (rCBF) was assigned a value of 100% and subsequent readings were expressed relative to this value. […]

Sequence of complement C3 (P01024 23-1663, species assumed): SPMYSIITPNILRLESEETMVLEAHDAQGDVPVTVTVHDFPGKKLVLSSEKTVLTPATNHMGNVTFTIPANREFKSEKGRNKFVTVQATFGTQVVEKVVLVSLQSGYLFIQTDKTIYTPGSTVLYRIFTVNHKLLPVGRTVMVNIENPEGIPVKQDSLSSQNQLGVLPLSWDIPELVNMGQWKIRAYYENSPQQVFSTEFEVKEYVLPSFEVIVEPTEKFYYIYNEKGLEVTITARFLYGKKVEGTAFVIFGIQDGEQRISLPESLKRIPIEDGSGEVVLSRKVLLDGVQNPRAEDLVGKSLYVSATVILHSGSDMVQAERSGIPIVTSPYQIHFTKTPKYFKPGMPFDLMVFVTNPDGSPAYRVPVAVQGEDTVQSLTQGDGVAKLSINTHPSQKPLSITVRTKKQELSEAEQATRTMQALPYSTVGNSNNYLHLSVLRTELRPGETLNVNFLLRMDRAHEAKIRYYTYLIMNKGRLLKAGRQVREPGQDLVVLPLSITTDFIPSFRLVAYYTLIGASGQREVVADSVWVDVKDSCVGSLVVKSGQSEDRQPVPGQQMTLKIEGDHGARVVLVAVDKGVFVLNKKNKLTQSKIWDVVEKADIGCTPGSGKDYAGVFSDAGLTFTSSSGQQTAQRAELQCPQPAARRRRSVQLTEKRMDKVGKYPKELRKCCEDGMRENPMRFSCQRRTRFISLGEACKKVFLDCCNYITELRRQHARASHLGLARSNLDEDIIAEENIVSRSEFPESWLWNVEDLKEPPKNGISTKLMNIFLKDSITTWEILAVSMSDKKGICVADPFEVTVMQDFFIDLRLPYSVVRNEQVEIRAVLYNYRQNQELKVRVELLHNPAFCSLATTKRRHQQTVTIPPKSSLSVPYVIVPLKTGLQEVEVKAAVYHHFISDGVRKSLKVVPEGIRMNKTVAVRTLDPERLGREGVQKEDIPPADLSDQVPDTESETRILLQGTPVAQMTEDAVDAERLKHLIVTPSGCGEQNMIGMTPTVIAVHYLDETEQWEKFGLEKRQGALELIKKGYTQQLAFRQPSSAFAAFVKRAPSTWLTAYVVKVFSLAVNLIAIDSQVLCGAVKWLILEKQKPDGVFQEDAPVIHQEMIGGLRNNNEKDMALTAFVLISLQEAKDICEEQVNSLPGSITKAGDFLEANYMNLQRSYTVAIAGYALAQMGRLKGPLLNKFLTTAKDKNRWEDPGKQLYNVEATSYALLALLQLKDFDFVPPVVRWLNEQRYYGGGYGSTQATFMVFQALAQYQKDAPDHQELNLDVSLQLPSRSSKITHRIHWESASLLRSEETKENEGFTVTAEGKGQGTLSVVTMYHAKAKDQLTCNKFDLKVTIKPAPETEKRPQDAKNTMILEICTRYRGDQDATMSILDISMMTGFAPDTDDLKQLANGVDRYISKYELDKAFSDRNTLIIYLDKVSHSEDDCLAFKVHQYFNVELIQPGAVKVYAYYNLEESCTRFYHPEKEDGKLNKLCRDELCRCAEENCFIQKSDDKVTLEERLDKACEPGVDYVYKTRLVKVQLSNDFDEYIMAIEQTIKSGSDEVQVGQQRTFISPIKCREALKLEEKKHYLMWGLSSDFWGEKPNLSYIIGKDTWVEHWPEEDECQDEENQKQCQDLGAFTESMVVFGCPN

Compound	IC50 (complement C3) [µM]	complement C3 inhibitory IC50, equivalent brain concentration (complement C3; equivalent of the IC50 expressed per g brain) [mg SHA/g brain]	ability to cross the blood-brain barrier ([1]; normal brain)	time after injection during which SHA concentration in blood and brain exceeds the complement C3 IC50 ([1]; blood and brain) [h]	time of peak concentration in blood and brain after drug administration ([1]; blood and brain)	infarct volume [2] [mm^3]	hemorrhage or other bleeding diathesis at postmortem examination ([3]; tPA 0.9-1.0 mg/kg i.v., all animals)	entry of tPA activity into the brain (histological zymography) ([3]; tPA-deficient mice, intravenous exogenous tPA)	increase in size of cerebral infarction ([3]; tPA-deficient mice, tPA 0.9-1.0 mg/kg i.v.)	effect on size of the stroke with large cerebral infarcts ([3]; wild-type mice, 3 hours of vascular occlusion, versus control animals not receiving tPA)	increase in size of cerebral infarction ([3]; wild-type mice, tPA 0.9-1.0 mg/kg i.v., 2 hour occlusion)
O=C(NO)c1ccccc1O [SHA, salicylhydroxamic acid]	8.3	0.0013	able to cross the blood-brain barrier quite effectively	2	about 30 minutes	6.1±6.0	–	–	–	–	–
tPA: serine protease tissue plasminogen activator, thrombolytic agent, commercially available from Genentech	–	–	–	–	–	–	No hemorrhage or other bleeding diathesis occurred	apparent entry of tPA activity into the brain	near doubling of the damage	did not enhance the size of the stroke	20-35%
